These results are taken from PMC10572522, “A Designed Analog of an Antimicrobial Peptide, Crabrolin, Exhibits Enhanced Anti-Proliferative and In Vivo Antimicrobial Activity” (International Journal of Molecular Sciences, 2023).

The test system of one series is E. coli (ATCC 8739). The experiment in a line: Antimicrobial susceptibility assay (MIC/MBC). Format: cell-based, Escherichia coli. Conditions: for MIC: MHB, 37 °C, 20 h. How it is done: (§1) Six bacteria were tested in this experiment to detect the antimicrobial effects of crabrolin and its derivatives, including S. aureus (NCTC 10788), MRSA (NCTC 12493), E. coli (ATCC 8739), K. pneumoniae (ATCC 43816), E. faecium (NTCC-12697), and P. aeruginosa (ATCC 9027). The tested bacteria were cultured in Mueller Hinton broth medium (MHB) with norfloxacin (20 mg/L) as a positive control. All bacteria were incubated at 37 °C overnight and diluted to 5 × 10^5 CFU/mL before treating with the peptides. Stock solutions of 51,200 µM peptides were prepared in phosphate-buffered saline (PBS) and further diluted by a factor of two to 100 µM. Next, 1 µL of each peptide solution was mixed with 99 µL of bacterial subculture in a 96-well plate, and the plate was incubated at 37 °C for 20 h. After culturing, the absorbance of each well in the 96-well plate was analyzed at 550 nm using a Synergy HT plate reader (BioliseBioTek, Winooski, VT, USA). […] Starting with the MIC value, 10 µL of the solution from each well was dripped onto Mueller Hinton agar (MHA) plates. The plates were cultured at 37 °C for 20 h. After culturing, the lowest concentration with no colony growth was regarded as the MBC.

The subject of the next series is MRSA (NCTC 12493). The experiment in a line: Antimicrobial susceptibility assay (MIC/MBC). The following applies: for MIC: MHB, 37 °C, 20 h. Format: cell-based, methicillin-resistant Staphylococcus aureus. The procedure:
as §1

For series [1], the system named is MRSA (NCTC 12493) biofilm. Format: cell-based, methicillin-resistant Staphylococcus aureus. The following applies: for MBIC: biofilm inhibitory rate more than 90%; for MBEC: eradication rate greater than 99.9%. How it is done:
(§2) To measure the antibiofilm activity of crabrolin and its derivatives, four drug-resistant biofilm-forming strains, MRSA (NCTC 12493), K. pneumoniae (ATCC 43816), E. faecium (NTCC-12697), and P. aeruginosa (ATCC 9027), were used in this assay. Tryptic soy broth (TSB) (for the Gram-positive bacteria) and Luria–Bertani broth (LB) (for the Gram-negative bacteria) were used to culture the bacteria.
(§3) The mass of the biofilm in this assay was detected by the crystal violet staining method. First, 100 μL of 5 × 10^5 CFU/mL bacteria was incubated with 1 μL of different peptide solutions (ranging from 51200 μM to 100 μM) for 24 h at 37 °C with 200 rpm shaking. After the biofilm formation, 100 μL of PBS was used to rinse the biofilm twice. Next, 100 µL of methanol was added to fix the biofilm, and the biofilm was then dried. Thereafter, 100 μL of 0.1% crystal violet was added and left to stain for 15 min, and then the excess crystal violet was further rinsed by PBS. After the plate had air-dried, 30% glacial acetic acid was added to each well of the plate, and the plate was shaken for 15 min before the optical density (OD) value was measured at 595 nm using a Synergy HT plate reader. The MBIC value refers to the minimum concentration at which the biofilm inhibitory rate was more than 90%.
(§4) Different from measuring the MBIC value, to determine the MBEC value, 100 μL of the bacteria was first added to 96-well plates. After the biofilm was formed, the biofilm was rinsed with PBS twice to remove the planktonic cells, and then different concentrations of the drugs were added to the biofilm (the same as the MBIC assay). The mixture was incubated at 37 °C with shaking at 200 rpm. After 24 h of incubation, the mass of the biofilm was measured in the same way as the MBIC value, and the minimum concentration at which the eradication rate was greater than 99.9% was considered to be the MBEC value.

The subject of series [2] is K. pneumoniae (ATCC 43816) biofilm. The format is cell-based, Klebsiella pneumoniae. The following applies: for MBIC: biofilm inhibitory rate more than 90%; for MBEC: eradication rate greater than 99.9%. How it is done:
as §2, §3, §4

The subject of series [3] is E. faecium (NTCC12697) biofilm. Format: cell-based, Enterococcus faecium. Conditions: for MBIC: biofilm inhibitory rate more than 90%; for MBEC: eradication rate greater than 99.9%. The procedure: as §2, §3, §4
Series [4] concerns P. aeruginosa (ATCC 9027) biofilm. The format is cell-based, Pseudomonas aeruginosa. Conditions: for MBIC: biofilm inhibitory rate more than 90%; for MBEC: eradication rate greater than 99.9%. The procedure:
as §2, §3, §4

Series [5] has as its system human keratinocyte cell line HaCaT. Put plainly: LDH cell cytotoxicity assay. Conditions: for LDH leakage: 25 μM, 24 h. Format: cell-based. The procedure: (§5) A Pierce LDH cytotoxicity assay kit (Thermo Scientific, Waltham, MA, USA) was applied for the LDH assay. An immortalized human microvascular endothelial cell line, HMEC-1, and a human keratinocyte cell line, HaCaT, were used in the LDH assay. A total of 8000 cells were placed in each well of the 96-well tissue culture plate with 100 µL of medium and incubated at 37 °C with 5% CO2 overnight. The cells were cultured with different drug concentrations ranging from 100 µM to 1µM for 24 h. […] of lysis buffer was prepared as the maximum LDH activity control. After incubating at 37 °C with 5% CO2 for 45 min, 50 µL of the sample was transferred into each well medium in a 96-well flat-bottom plate. Then, 50 µL of the reaction mixture was transferred to the wells and mixed. The 96-well plate was cultured for 30 min and protected from light at room temperature. Then, 50 µL of stop solution (supplied in the kit) was added to each well and mixed. The absorbance was detected at 490 nm and 680 nm.

The subject of series [6] is immortalized human microvascular endothelial cell line HMEC-1. Put plainly: LDH cell cytotoxicity assay. The format is cell-based. The procedure:
as §5

SMILES strings stand for the structures. Residues, ends and D or L forms follow the SMILES beside them.

Broadly, the MBC is the smallest concentration meeting the test's criterion for killing. Broadly, the MIC is the lowest concentration that inhibits growth of the organism.

On to `CC[C@H](C)[C@H](NC(=O)[C@H](CC(C)C)NC(=O)[C@@H]1CCCN1C(=O)[C@H](CC(C)C)NC(=O)[C@@H](N)Cc1ccccc1)C(=O)N[C@@H](CC(C)C)C(=O)N[C@@H](CCCNC(=N)N)C(=O)N[C@@H](CCCCN)C(=O)N[C@H](C(=O)N[C@H](C(=O)N[C@H](C(=O)N[C@@H](C)C(=O)N[C@@H](CC(C)C)C(N)=O)[C@@H](C)O)C(C)C)[C@@H](C)CC` [Crabrolin, FLPLILRKIVTAL-NH2] (H-FLPLILRKIVTAL-NH2), for which the minimal bactericidal concentration (MBC) is recorded as 128 µM with E. coli (ATCC 8739) and 8 µM in the series with MRSA (NCTC 12493). In addition, the figures for the minimal inhibitory concentration (MIC) in the series on E. coli (ATCC 8739), in the series with MRSA (NCTC 12493) and in the series on MRSA (NCTC 12493) (listed as crabrolin) were 32 µM, 4 µM and 8 µM, respectively. For the same compound, the MBIC in series [1] is given as 4 µM; in series [2], >512/>512 µM; in series [3], 32 µM; in series [4], 128 µM. Also, the MBEC is listed as 128 µM in series [1], >512/>512 µM in series [2], more than 512 µM in series [3] and 512 µM in series [4]. In addition, the LDH leakage in series [5] was approximately 20%. The “Cytotoxicity (LDH release)” value is “showed cytotoxicity” in series [5] (100 μM) and “showed cytotoxicity” in series [6] (HMEC-1, 100 μM).

For the compound `CC[C@H](C)[C@H](NC(=O)[C@H](CCCNC(=N)N)NC(=O)[C@@H]1CCCN1C(=O)[C@H](CC(C)C)NC(=O)[C@@H](N)Cc1ccccc1)C(=O)N[C@@H](CC(C)C)C(=O)N[C@@H](CCCNC(=N)N)C(=O)N[C@@H](CCCCN)C(=O)N[C@H](C(=O)N[C@H](C(=O)N[C@@H](CCCNC(=N)N)C(=O)N[C@@H](C)C(=O)N[C@@H](CC(C)C)C(N)=O)C(C)C)[C@@H](C)CC` [Crabrolin-TR, FLPRILRKIVRAL-NH2] (H-FLPRILRKIVRAL-NH2), the MBC in the series on E. coli (ATCC 8739) came out at 4 µM; in the series with MRSA (NCTC 12493) it was 2 µM. In addition, the minimal inhibitory concentration (MIC) in the series on E. coli (ATCC 8739) and in the series on MRSA (NCTC 12493) was 2 µM in each case. Also, the MBIC in series [1] worked out at 2 µM; in series [2], 8 µM; in series [3] it was 16 µM; in series [4] it was 8 µM. For the same compound, the MBEC in series [1] is 64 µM; in series [2], 128 µM; in series [3], more than 512 µM; in series [4], 256 µM. The LDH leakage in series [5] is reported as approximately 20%. The “Cytotoxicity (LDH release)” value in series [6] (HMEC-1, 25 μM) is reported as “cytotoxic”.
